Measured values published in the NIST ThermoML archive (doi:10.1021/je5009119).

Key:
[1] = mn = molality of the nth substance listed, in mol/kg; conditions: 101 kPa, Liquid; for viscosity: Capillary tube (Ostwald / Ubbelohde) method; for mass density: Pycnometric method
[2] = 101.33 kPa, Liquid; for viscosity: Capillary tube (Ostwald / Ubbelohde) method; for mass density: Pycnometric method

NC(N)=O [urea] + OCCO
[1]
Conditions | mass density, 298.15 K [kg/m3] | mass density, 303.15 K [kg/m3] | mass density, 308.15 K [kg/m3] | mass density, 313.15 K [kg/m3] | mass density, 318.15 K [kg/m3] | viscosity, 298.15 K [mPa·s] | viscosity, 303.15 K [mPa·s] | viscosity, 308.15 K [mPa·s] | viscosity, 313.15 K [mPa·s] | viscosity, 318.15 K [mPa·s]
m1 = 0.877 | 1118.4 | 1114.8 | 1111.1 | 1107.8 | 1103.9 | 17 | 14.9 | 12.1 | 10.1 | 8.13
m1 = 1.852 | 1127.9 | 1124.4 | 1120.7 | 1117.4 | 1113.6 | 18.5 | 16 | 13 | 10.8 | 8.68
m1 = 2.939 | 1137.2 | 1133.7 | 1130 | 1126.8 | 1122.9 | 20.4 | 17.5 | 14.1 | 11.6 | 9.31
m1 = 4.162 | 1146.3 | 1142.9 | 1139.1 | 1135.9 | 1132.1 | 22.1 | 18.8 | 15.1 | 12.4 | 9.86
m1 = 5.549 | 1155.3 | 1151.9 | 1148.1 | 1144.9 | 1141 | 24 | 20.2 | 16.1 | 13.2 | 10.4
m1 = 7.137 | 1164.4 | 1161.1 | 1157.4 | 1154.1 | 1150.3 | 25.7 | 21.5 | 17.1 | 13.9 | 11

OCCO [1,2-ethanediol]
[2]
Conditions | mass density [kg/m3] | viscosity [mPa·s]
298.15 K | – | 16.2
303.15 K | 1106.6 | 14.1
308.15 K | – | 11.6
313.15 K | 1099.3 | 9.75
318.15 K | – | 7.91

OCCO [1,2-ethanediol] + NC(N)=O
[1], m2 = 0
Conditions | mass density [kg/m3] | viscosity [mPa·s]
298.15 K | – | 16.2
303.15 K | 1106.6 | 14.1
308.15 K | – | 11.6
313.15 K | 1099.3 | 9.75
318.15 K | – | 7.91
